Measurements published in the NIST ThermoML archive (doi:10.1021/je050402s).
± gives the expanded uncertainty stated by the source.

Assay: xn = mol fraction of the nth substance listed
Settings: 100.5 kPa, Liquid; for viscosity: Capillary tube (Ostwald / Ubbelohde) method

CC(=O)OCc1ccccc1 [benzyl ethanoate] + CCO
Settings	mass density, 288.15 K [kg/m3]	mass density, 298.15 K [kg/m3]	mass density, 308.15 K [kg/m3]	mass density, 318.15 K [kg/m3]	viscosity, 288.15 K [mPa·s]	viscosity, 298.15 K [mPa·s]	viscosity, 308.15 K [mPa·s]	viscosity, 318.15 K [mPa·s]
x1 = 0.05	825.52 ± 0.4	816.73 ± 0.41	807.83 ± 0.43	798.78 ± 0.44	1.317 ± 0.014	1.089 ± 0.013	0.91 ± 0.013	0.766 ± 0.013
x1 = 0.1	852.86 ± 0.36	843.91 ± 0.38	834.85 ± 0.39	825.63 ± 0.4	1.328 ± 0.014	1.098 ± 0.014	0.92 ± 0.013	0.779 ± 0.013
x1 = 0.15	876.56 ± 0.33	867.47 ± 0.34	858.28 ± 0.36	848.94 ± 0.37	1.357 ± 0.014	1.123 ± 0.014	0.942 ± 0.013	0.796 ± 0.013
x1 = 0.2	897.58 ± 0.3	888.4 ± 0.32	879.1 ± 0.33	869.66 ± 0.34	1.393 ± 0.014	1.154 ± 0.014	0.967 ± 0.013	0.821 ± 0.013
x1 = 0.25	916.18 ± 0.28	906.92 ± 0.3	897.57 ± 0.31	888.07 ± 0.32	1.439 ± 0.014	1.191 ± 0.014	0.998 ± 0.013	0.846 ± 0.013
x1 = 0.3	932.86 ± 0.26	923.54 ± 0.28	914.12 ± 0.29	904.56 ± 0.3	1.489 ± 0.015	1.231 ± 0.014	1.031 ± 0.013	0.875 ± 0.013
x1 = 0.35	947.82 ± 0.25	938.44 ± 0.26	928.98 ± 0.27	919.38 ± 0.29	1.543 ± 0.015	1.274 ± 0.014	1.067 ± 0.013	0.906 ± 0.013
x1 = 0.4	961.41 ± 0.24	952 ± 0.25	942.5 ± 0.26	932.88 ± 0.27	1.601 ± 0.015	1.319 ± 0.014	1.104 ± 0.014	0.937 ± 0.013
x1 = 0.45	973.74 ± 0.23	964.29 ± 0.24	954.76 ± 0.25	945.12 ± 0.26	1.661 ± 0.015	1.365 ± 0.014	1.142 ± 0.014	0.971 ± 0.013
x1 = 0.5	984.92 ± 0.22	975.44 ± 0.23	965.91 ± 0.24	956.27 ± 0.25	1.724 ± 0.015	1.413 ± 0.014	1.182 ± 0.014	1.005 ± 0.013
x1 = 0.55	995.2 ± 0.21	985.72 ± 0.22	976.17 ± 0.23	966.52 ± 0.24	1.789 ± 0.016	1.465 ± 0.015	1.223 ± 0.014	1.04 ± 0.013
x1 = 0.6	1004.68 ± 0.21	995.21 ± 0.21	985.66 ± 0.22	976.03 ± 0.22	1.859 ± 0.016	1.518 ± 0.015	1.268 ± 0.014	1.077 ± 0.014
x1 = 0.65	1013.4 ± 0.22	1003.92 ± 0.21	994.38 ± 0.21	984.76 ± 0.22	1.929 ± 0.016	1.571 ± 0.015	1.312 ± 0.014	1.116 ± 0.014
x1 = 0.7	1021.55 ± 0.23	1012.1 ± 0.22	1002.56 ± 0.21	992.96 ± 0.21	2.003 ± 0.016	1.629 ± 0.015	1.36 ± 0.014	1.156 ± 0.014
x1 = 0.75	1029.05 ± 0.24	1019.58 ± 0.23	1010.07 ± 0.22	1000.51 ± 0.21	2.081 ± 0.017	1.691 ± 0.015	1.409 ± 0.014	1.197 ± 0.014
x1 = 0.8	1036.05 ± 0.25	1026.61 ± 0.24	1017.13 ± 0.23	1007.6 ± 0.22	2.163 ± 0.017	1.76 ± 0.016	1.463 ± 0.015	1.241 ± 0.014
x1 = 0.85	1042.59 ± 0.27	1033.16 ± 0.26	1023.71 ± 0.24	1014.22 ± 0.23	2.249 ± 0.017	1.83 ± 0.016	1.524 ± 0.015	1.289 ± 0.014
x1 = 0.9	1048.78 ± 0.28	1039.39 ± 0.27	1029.98 ± 0.26	1020.53 ± 0.25	2.339 ± 0.018	1.906 ± 0.016	1.588 ± 0.015	1.341 ± 0.014
x1 = 0.95	1054.57 ± 0.29	1045.21 ± 0.28	1035.84 ± 0.27	1026.44 ± 0.26	2.44 ± 0.018	1.987 ± 0.016	1.652 ± 0.015	1.392 ± 0.014
x1 = 1	1060.11 ± 0.31	1050.75 ± 0.29	1041.39 ± 0.28	1032.03 ± 0.27	2.53 ± 0.018	2.056 ± 0.017	1.703 ± 0.015	1.432 ± 0.015

CCC(=O)OCc1ccccc1 [benzyl propanoate] + CCO
Settings	mass density, 288.15 K [kg/m3]	mass density, 298.15 K [kg/m3]	mass density, 308.15 K [kg/m3]	mass density, 318.15 K [kg/m3]	viscosity, 288.15 K [mPa·s]	viscosity, 298.15 K [mPa·s]	viscosity, 308.15 K [mPa·s]	viscosity, 318.15 K [mPa·s]
x1 = 0.05	825.63 ± 0.4	816.86 ± 0.42	807.99 ± 0.43	798.97 ± 0.44	1.352 ± 0.014	1.115 ± 0.014	0.929 ± 0.013	0.777 ± 0.013
x1 = 0.1	852.43 ± 0.36	843.5 ± 0.38	834.48 ± 0.39	825.3 ± 0.41	1.379 ± 0.014	1.14 ± 0.014	0.949 ± 0.013	0.795 ± 0.013
x1 = 0.15	875.21 ± 0.33	866.17 ± 0.35	857.03 ± 0.36	847.75 ± 0.38	1.42 ± 0.014	1.173 ± 0.014	0.976 ± 0.013	0.819 ± 0.013
x1 = 0.2	894.95 ± 0.31	885.82 ± 0.32	876.6 ± 0.34	867.25 ± 0.35	1.466 ± 0.014	1.211 ± 0.014	1.009 ± 0.013	0.848 ± 0.013
x1 = 0.25	912.16 ± 0.29	902.96 ± 0.31	893.68 ± 0.32	884.27 ± 0.33	1.516 ± 0.015	1.253 ± 0.014	1.044 ± 0.013	0.879 ± 0.013
x1 = 0.3	927.38 ± 0.28	918.13 ± 0.29	908.8 ± 0.3	899.34 ± 0.32	1.571 ± 0.015	1.298 ± 0.014	1.084 ± 0.014	0.913 ± 0.013
x1 = 0.35	940.83 ± 0.27	931.54 ± 0.28	922.17 ± 0.29	912.69 ± 0.3	1.631 ± 0.015	1.348 ± 0.014	1.127 ± 0.014	0.95 ± 0.013
x1 = 0.4	952.87 ± 0.26	943.55 ± 0.27	934.16 ± 0.28	924.65 ± 0.29	1.694 ± 0.015	1.401 ± 0.014	1.171 ± 0.014	0.988 ± 0.013
x1 = 0.45	963.72 ± 0.26	954.39 ± 0.27	944.97 ± 0.28	935.46 ± 0.29	1.757 ± 0.015	1.454 ± 0.015	1.217 ± 0.014	1.027 ± 0.013
x1 = 0.5	973.57 ± 0.26	964.22 ± 0.26	954.79 ± 0.27	945.28 ± 0.28	1.821 ± 0.016	1.509 ± 0.015	1.263 ± 0.014	1.067 ± 0.014
x1 = 0.55	982.43 ± 0.25	973.07 ± 0.26	963.63 ± 0.27	954.12 ± 0.28	1.886 ± 0.016	1.564 ± 0.015	1.31 ± 0.014	1.107 ± 0.014
x1 = 0.6	990.54 ± 0.25	981.17 ± 0.26	971.74 ± 0.27	962.24 ± 0.27	1.952 ± 0.016	1.621 ± 0.015	1.358 ± 0.014	1.148 ± 0.014
x1 = 0.65	997.98 ± 0.26	988.61 ± 0.26	979.19 ± 0.27	969.71 ± 0.27	2.019 ± 0.017	1.678 ± 0.015	1.407 ± 0.015	1.19 ± 0.014
x1 = 0.7	1004.81 ± 0.27	995.44 ± 0.27	986.04 ± 0.27	976.58 ± 0.28	2.088 ± 0.017	1.737 ± 0.016	1.457 ± 0.015	1.233 ± 0.014
x1 = 0.75	1011.09 ± 0.28	1001.73 ± 0.27	992.35 ± 0.28	982.93 ± 0.28	2.158 ± 0.017	1.797 ± 0.016	1.509 ± 0.015	1.278 ± 0.014
x1 = 0.8	1016.98 ± 0.3	1007.63 ± 0.29	998.28 ± 0.28	988.88 ± 0.29	2.23 ± 0.018	1.858 ± 0.016	1.562 ± 0.015	1.323 ± 0.014
x1 = 0.85	1022.5 ± 0.31	1013.15 ± 0.31	1003.82 ± 0.3	994.46 ± 0.3	2.305 ± 0.018	1.921 ± 0.017	1.617 ± 0.015	1.37 ± 0.015
x1 = 0.9	1027.59 ± 0.33	1018.25 ± 0.32	1008.96 ± 0.31	999.64 ± 0.31	2.383 ± 0.018	1.986 ± 0.017	1.674 ± 0.016	1.419 ± 0.015
x1 = 0.95	1032.37 ± 0.35	1023.06 ± 0.34	1013.8 ± 0.33	1004.53 ± 0.32	2.463 ± 0.019	2.053 ± 0.017	1.729 ± 0.016	1.468 ± 0.015
x1 = 1	1036.86 ± 0.36	1027.6 ± 0.35	1018.38 ± 0.34	1009.15 ± 0.34	2.55 ± 0.019	2.123 ± 0.018	1.787 ± 0.016	1.515 ± 0.015
